Assay results published in ChEMBL document CHEMBL1129762, “Synthesis and antibacterial activity of 4- and 8-methoxy trinems” (1996).

How the values were obtained:
Assay type in all cases: functional
[1] = test system: Staphylococcus aureus; test: In vitro antibacterial activity against Staphylococcus aureus 853.
[2] = test system: Staphylococcus aureus; test: In vitro antibacterial activity against Staphylococcus aureus 663E.
[3] = test system: Clostridium perfringens; test: In vitro antibacterial activity against Clostridium perfringens 615E
[4] = test system: Escherichia coli; test: In vitro antibacterial activity against Escherichia coli 1919
[5] = test system: Enterococcus faecalis; test: In vitro antibacterial activity against Enterococcus faecalis 850.
[6] = test system: Escherichia coli; test: In vitro antibacterial activity against Escherichia coli 1850

Compound	MIC [1]	MIC [2]	MIC [3]	MIC [4]	MIC [5]	MIC [6]
CO[C@@]12CCCCC1=C(C(=O)[O-])N1C(=O)[C@H]([C@@H](C)O)[C@H]12.[K+]	4 µg/mL	4 µg/mL	2000 µg/mL	4 µg/mL	16 µg/mL	8 µg/mL
CO[C@@H]1CCC[C@H]2C1=C(C(=O)[O-])N1C(=O)[C@H]([C@@H](C)O)C21.[K+] (some centres not stated)	0.5 µg/mL	0.5 µg/mL	120 µg/mL	4 µg/mL	8 µg/mL	1 µg/mL
CO[C@H]1CCC[C@H]2C1=C(C(=O)[O-])N1C(=O)[C@H]([C@@H](C)O)C21.[K+] (some centres not stated)	0.25 µg/mL	0.25 µg/mL	30 µg/mL	0.5 µg/mL	1 µg/mL	0.5 µg/mL
CO[C@@H]1CCC[C@@H]2C1=C(C(=O)[O-])N1C(=O)[C@H]([C@@H](C)O)C21.[K+] (some centres not stated)	2 µg/mL	2 µg/mL	1000 µg/mL	16 µg/mL	32 µg/mL	16 µg/mL
C[C@@H](O)[C@H]1C(=O)N2C(C(=O)O)=C(SCCNC=N)C[C@H]12.O [IMIPENEM]	0.1 µg/mL	0.12 µg/mL	30 µg/mL	0.5 µg/mL	2 µg/mL	0.5 µg/mL
CO[C@H]1CCC[C@@H]2C1=C(C(=O)[O-])N1C(=O)[C@H]([C@@H](C)O)C21.[K+] (some centres not stated)	1 µg/mL	2 µg/mL	4000 µg/mL	16 µg/mL	32 µg/mL	32 µg/mL
CO[C@]12CCCCC1=C(C(=O)[O-])N1C(=O)[C@H]([C@@H](C)O)[C@H]12.[K+]	8 µg/mL	4 µg/mL	2000 µg/mL	8 µg/mL	32 µg/mL	32 µg/mL
